The test system of one assay is Staphylococcus aureus. The assay is described as follows: Susceptibility testing (MIC) Assay 1, broth microdilution. It is filed as cell-based.
A further assay relates to Streptococcus pneumoniae. The assay is described as above. It is filed as cell-based.
The test system of the next assay is Streptococcus pyogenes. The description is as above. It is filed as cell-based. The note with it: Streptococcus pyrgenes, in vivo strain, read-out: Spy MIC.
The subject of a further assay is Escherichia coli. The assay is described as follows: Susceptibility testing (MIC) Assay 2, broth microdilution. The note with it: K12, read-out: Eco MIC. In kind it is cell-based.
In another assay the test system is Haemophilus influenzae. The assay is described as above. In kind it is cell-based. The note with it: ATCC 51907, in vivo strain, read-out: Hin MIC.
In a further assay the test system is Klebsiella pneumoniae. The assay is described as above. Particulars: clinical isolate, mucoid, read-out: Kpn MIC. In kind it is cell-based.
The next assay deals with Pseudomonas aeruginosa. The assay is described as above. It is filed as cell-based. The note with it: for MIC: PAO1, read-out: Pae MIC.
In assay [1] the target is Escherichia coli DNA gyrase A/B tetramer (Escherichia coli (strain K12), UniProt P0AES4+P0AES6). The assay is described as follows: DNA gyrase supercoiling activity fluorescence polarisation assay. It is filed as biochemical. Particulars: 0.3 mM ATP. The procedure, abridged:
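IC50 derived by nonlinear regression from BODIPY-FL fluorescence anisotropy, read 60 min after quenching with labelled triplex-forming probe (pH 3.5). Reaction: 5 nM gyrase tetramer, 130 micrograms/mL relaxed plasmid, 0.3 mM ATP, 4 mM MgCl2, pH 7.5, typically 30 min at ambient temperature, 5-10 compound concentrations.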

The mark [2] stands for this setting: Staphylococcus aureus, Staphylococcus aureus in vivo strain, MSQS, read-out: Sau(d) MIC.
Where [3] appears, read: Staphylococcus aureus, in vivo strain, MRQR, read-out: Sau(e) MIC.
The mark [4] stands for this setting: Staphylococcus aureus, serum, read-out: Sau(f) MIC.
Where [5] appears, read: in vivo strain (footnote b), read-out: Spn(b) MIC.
[6] abbreviates: in vivo strain (footnote c), read-out: Spn(c) MIC.
The mark [7] stands for this setting: ATCC51907, Haemophilus influenzae.
[8] abbreviates: Eco Gyr FP Mean IC50, E. coli DNA gyrase supercoiling.

The structures appear in SMILES notation. Converted amounts (≈) assume the structure as drawn. Where two headings read alike, the source gives them in different places.

Experimental findings from patent US8889671B2, “Compounds and methods for treating bacterial infections” (AstraZeneca AB, priority 2013, dated 2014) are described below.

For `C[C@@H]1CN2c3c(cc4c(N5C(=O)OC[C@@H]5c5ccccn5)noc4c3F)CC3(C(=O)NC(=O)NC3=O)[C@H]2[C@H](C)O1` [Example 56, (2R,4S,4aS)-11-fluoro-2,4-dimethyl-8-((S)-2-oxo-4-(pyridin-2-yl)oxazolidin-3-yl)-2,4,4a,6-tetrahydro-1H,1′H-spiro[isoxazolo[4,5-g][1,4]oxazino[4,3-a]quinoline-5,5′-pyrimidine]-2′,4′,6′(3′H)-trione], the MIC in the assay on Staphylococcus aureus (setting [2]) was found to be 3.1 µM (≈ 1.71 µg/mL); in the assay with Staphylococcus aureus (setting [3]), 6.2 µM (≈ 3.41 µg/mL); with Staphylococcus aureus (setting [4]) it was 25 µM (≈ 13.8 µg/mL); with Streptococcus pneumoniae (setting [5]), 6.2 µM (≈ 3.41 µg/mL); with Streptococcus pneumoniae (setting [6]) it was 6.2 µM (≈ 3.41 µg/mL); in the assay on Streptococcus pyogenes (Streptococcus pyogenes), 3.1 µM (≈ 1.71 µg/mL). Besides, the MIC in the assay with Escherichia coli is above 200 µM; with Haemophilus influenzae (setting [7]), 3.1 µM (≈ 1.71 µg/mL); in the assay with Klebsiella pneumoniae, above 200 µM; in the assay on Pseudomonas aeruginosa, above 200 µM. In assay [1] (setting [8]), this molecule came in with an IC50 of 1900 nM.
With `C[C@@H]1CN2c3c(cc4c(N5C(=O)OC[C@@H]5C(F)F)noc4c3F)CC3(C(=O)NC(=O)NC3=O)[C@H]2[C@H](C)O1` [Example 51], the MIC in the assay on Staphylococcus aureus (setting [2]) was 0.28 µM (≈ 0.147 µg/mL); in the assay on Staphylococcus aureus (setting [3]) it was 0.55 µM (≈ 0.288 µg/mL); with Staphylococcus aureus (setting [4]), 0.78 µM (≈ 0.408 µg/mL); in the assay with Streptococcus pneumoniae (setting [5]), 0.78 µM (≈ 0.408 µg/mL); in the assay with Streptococcus pneumoniae (setting [6]) it was 0.78 µM (≈ 0.408 µg/mL); with Streptococcus pyogenes (Streptococcus pyogenes), 0.55 µM (≈ 0.288 µg/mL). The MIC in the assay on Escherichia coli was 12 µM (≈ 6.28 µg/mL); in the assay with Haemophilus influenzae (setting [7]) it was 0.39 µM (≈ 0.204 µg/mL); in the assay on Klebsiella pneumoniae, 100 µM (≈ 52.3 µg/mL); in the assay with Pseudomonas aeruginosa, above 200 µM. This molecule gave an IC50 in assay [1] (setting [8]) of 430 nM.
On to `COCCOC[C@H]1COC(=O)N1c1noc2c(F)c3c(cc12)CC1(C(=O)NC(=O)NC1=O)[C@H]1[C@H](C)O[C@H](C)CN31` [Example 50, (2R,4S,4aS)-11-Fluoro-8-{(4S)-4-[(2-methoxyethoxy)methyl]-2-oxo-1,3-oxazolidin-3-yl}-2,4-dimethyl-1,2,4,4a-tetrahydro-2′H,6H-spiro[1,4-oxazino[4,3-a][1,2]oxazolo[4,5-g]quinoline-5,5′-pyrimidine]-2′,4′,6′(1′H,3′H)-trione], for which the MIC in the assay with Staphylococcus aureus (setting [2]) was found to be 1.6 µM (≈ 0.898 µg/mL); in the assay with Staphylococcus aureus (setting [3]) it was 3.1 µM (≈ 1.74 µg/mL); with Staphylococcus aureus (setting [4]) it was 1.6 µM (≈ 0.898 µg/mL); with Streptococcus pneumoniae (setting [5]), 1.6 µM (≈ 0.898 µg/mL); in the assay on Streptococcus pneumoniae (setting [6]), 1.6 µM (≈ 0.898 µg/mL); in the assay with Streptococcus pyogenes (Streptococcus pyogenes) it was 1.6 µM (≈ 0.898 µg/mL). Moreover, the MIC was 200 µM (≈ 112 µg/mL) in the assay on Escherichia coli, 3.1 µM (≈ 1.74 µg/mL) with Haemophilus influenzae (setting [7]), above 200 µM with Klebsiella pneumoniae and above 200 µM in the assay on Pseudomonas aeruginosa. This molecule also had an IC50 in assay [1] (setting [8]) of 200 nM.
`CON=C[C@H]1COC(=O)N1c1noc2c(F)c3c(cc12)CC1(C(=O)NC(=O)NC1=O)[C@H]1[C@H](C)O[C@H](C)CN31` [Example 42, (2R,4S,4aS)-11-Fluoro-8-{(4S)-4-[(methoxyimino)methyl]-2-oxo-1,3-oxazolidin-3-yl}-2,4-dimethyl-1,2,4,4a-tetrahydro-2′H,6H-spiro[1,4-oxazino[4,3-a][1,2]oxazolo[4,5-g]quinoline-5,5′-pyrimidine]-2′,4′,6′(1′H,3′H)-trione]: the MIC in the assay on Staphylococcus aureus (setting [2]) was below 0.2 µM; in the assay on Staphylococcus aureus (setting [3]), 0.39 µM (≈ 0.207 µg/mL); in the assay with Staphylococcus aureus (setting [4]), 1.6 µM (≈ 0.849 µg/mL); with Streptococcus pneumoniae (setting [5]), 0.39 µM (≈ 0.207 µg/mL); in the assay on Streptococcus pneumoniae (setting [6]), 0.39 µM (≈ 0.207 µg/mL); in the assay on Streptococcus pyogenes (Streptococcus pyogenes) it was 0.39 µM (≈ 0.207 µg/mL). The MIC with Escherichia coli is 25 µM (≈ 13.3 µg/mL); with Haemophilus influenzae (setting [7]), 0.39 µM (≈ 0.207 µg/mL); with Klebsiella pneumoniae it was 200 µM (≈ 106 µg/mL); in the assay on Pseudomonas aeruginosa, above 200 µM. In assay [1] (setting [8]), this molecule yielded an IC50 of 290 nM.
Regarding `C[C@@H]1CN2c3c(cc4c(N5C[C@H](c6ccccn6)OC5=O)noc4c3F)CC3(C(=O)NC(=O)NC3=O)[C@H]2[C@H](C)O1` [Example 53, (2R,4S,4aS)-11-Fluoro-2,4-dimethyl-8-((R)-2-oxo-5-(pyridin-2-yl)oxazolidin-3-yl)-2,4,4a,6-tetrahydro-1H,1′H-spiro[isoxazolo[4,5-g][1,4]oxazino[4,3-a]quinoline-5,5′-pyrimidine]-2′,4′,6′(3′H)-trione], the MIC with Staphylococcus aureus (setting [2]) was found to be 0.098 µM (≈ 0.0539 µg/mL); in the assay on Staphylococcus aureus (setting [3]), 0.39 µM (≈ 0.215 µg/mL); in the assay with Staphylococcus aureus (setting [4]), 0.55 µM (≈ 0.303 µg/mL); with Streptococcus pneumoniae (setting [5]), 0.39 µM (≈ 0.215 µg/mL); in the assay on Streptococcus pneumoniae (setting [6]), 0.55 µM (≈ 0.303 µg/mL); in the assay on Streptococcus pyogenes (Streptococcus pyogenes), 0.464 µM (≈ 0.255 µg/mL). Also, the MIC was 35 µM (≈ 19.3 µg/mL) in the assay on Escherichia coli, 1.1 µM (≈ 0.606 µg/mL) in the assay with Haemophilus influenzae (setting [7]), above 200 µM with Klebsiella pneumoniae and above 200 µM in the assay on Pseudomonas aeruginosa. The molecule also registered a half-maximal inhibitory concentration (IC50) in assay [1] (setting [8]) of 380 nM.
As for `C[C@@H]1CN2c3c(cc4c(N5C(=O)OC[C@H]5c5ncccn5)noc4c3F)CC3(C(=O)NC(=O)NC3=O)[C@H]2[C@H](C)O1` [Example 63, (2R,4S,4aS)-11-Fluoro-2,4-dimethyl-8-((R)-2-oxo-4-(pyrimidin-2-yl)oxazolidin-3-yl)-2,4,4a,6-tetrahydro-1H,1′H-spiro[isoxazolo[4,5-g][1,4]oxazino[4,3-a]quinoline-5,5′-pyrimidine]-2′,4′,6′(3′H)-trione], the MIC with Staphylococcus aureus (setting [2]) is 0.78 µM (≈ 0.43 µg/mL); in the assay on Staphylococcus aureus (setting [3]), 3.1 µM (≈ 1.71 µg/mL); with Staphylococcus aureus (setting [4]) it was above 200 µM; with Streptococcus pneumoniae (setting [5]) it was 0.39 µM (≈ 0.215 µg/mL); in the assay on Streptococcus pneumoniae (setting [6]), 0.39 µM (≈ 0.215 µg/mL); in the assay on Streptococcus pyogenes (Streptococcus pyogenes), 0.39 µM (≈ 0.215 µg/mL). In addition, the MIC with Escherichia coli is 100 µM (≈ 55.1 µg/mL); in the assay on Haemophilus influenzae (setting [7]) it was 0.39 µM (≈ 0.215 µg/mL); with Klebsiella pneumoniae, above 200 µM; in the assay on Pseudomonas aeruginosa it was above 200 µM. The molecule further came in with an IC50 in assay [1] (setting [8]) of 380 nM.
As for `CC[C@@H]1COC(=O)N1c1noc2c(F)c3c(cc12)CC1(C(=O)NC(=O)NC1=O)[C@H]1[C@H](C)O[C@H](C)CN31` [Example 7], the MIC came out at 6.2 µM (≈ 3.11 µg/mL) in the assay with Staphylococcus aureus (setting [2]); 12 µM (≈ 6.02 µg/mL) in the assay on Staphylococcus aureus (setting [3]); 25 µM (≈ 12.5 µg/mL) in the assay with Staphylococcus aureus (setting [4]); 25 µM (≈ 12.5 µg/mL) in the assay on Streptococcus pneumoniae (setting [5]); 12 µM (≈ 6.02 µg/mL) in the assay with Streptococcus pneumoniae (setting [6]); 6.2 µM (≈ 3.11 µg/mL) in the assay on Streptococcus pyogenes (Streptococcus pyogenes). In addition, the MIC with Escherichia coli is 200 µM (≈ 100 µg/mL); in the assay with Haemophilus influenzae (setting [7]), 12 µM (≈ 6.02 µg/mL); in the assay with Klebsiella pneumoniae, above 200 µM; in the assay with Pseudomonas aeruginosa, above 200 µM. The molecule also gave an IC50 in assay [1] (setting [8]) of 9700 nM.
Consider `C[C@@H]1CN2c3c(cc4c(N5C(=O)OC[C@@H]5C5CCOCC5)noc4c3F)CC3(C(=O)NC(=O)NC3=O)[C@H]2[C@H](C)O1` [Example 28], for which the MIC was found to be 25 µM (≈ 13.9 µg/mL) in the assay with Staphylococcus aureus (Staphylococcus aureus in vivo strain, MSQS, read-out: Sau(d) MIC); 50 µM (≈ 27.9 µg/mL) with Staphylococcus aureus (setting [3]); 50 µM (≈ 27.9 µg/mL) in the assay on Staphylococcus aureus (setting [4]); 25 µM (≈ 13.9 µg/mL) in the assay with Streptococcus pneumoniae (setting [5]); 25 µM (≈ 13.9 µg/mL) in the assay on Streptococcus pneumoniae (setting [6]); 25 µM (≈ 13.9 µg/mL) in the assay on Streptococcus pyogenes. In addition, the MIC is reported as above 200 µM with Escherichia coli, 25 µM (≈ 13.9 µg/mL) with Haemophilus influenzae and above 200 µM in the assay with Klebsiella pneumoniae. In addition, in the assay with Pseudomonas aeruginosa (PAO1), the “Pae MIC” value is above 200 µM. The IC50 in assay [1] (E. coli DNA gyrase supercoiling, read-out: Eco Gyr FP Mean IC50) is above 2100 nM.
As for `C[C@@H]1CN(c2noc3c(F)c4c(cc23)CC2(C(=O)NC(=O)NC2=O)[C@H]2[C@H](C)O[C@H](C)CN42)C(=O)O1` [Example 4, (2R,4S,4aS)-11-Fluoro-2,4-dimethyl-8-[(5R)-5-methyl-2-oxo-1,3-oxazolidin-3-yl]-1,2,4,4a-tetrahydro-2′H,6H-spiro[1,4-oxazino[4,3-a][1,2]oxazolo[4,5-g]quinoline-5,5′-pyrimidine]-2′,4′,6′(1′H,3′H)-trione], the MIC in the assay with Staphylococcus aureus (setting [2]) worked out at 0.25 µM (≈ 0.122 µg/mL); with Staphylococcus aureus (setting [3]) it was 0.67 µM (≈ 0.327 µg/mL); in the assay on Staphylococcus aureus (setting [4]), 0.47 µM (≈ 0.229 µg/mL); in the assay with Streptococcus pneumoniae (setting [5]), 0.42 µM (≈ 0.205 µg/mL); in the assay on Streptococcus pneumoniae (setting [6]) it was 0.46 µM (≈ 0.224 µg/mL); in the assay on Streptococcus pyogenes (Streptococcus pyogenes), 0.36 µM (≈ 0.175 µg/mL). Besides, the MIC in the assay with Escherichia coli was 9.9 µM (≈ 4.83 µg/mL); with Haemophilus influenzae (setting [7]) it was 0.47 µM (≈ 0.229 µg/mL); in the assay on Klebsiella pneumoniae it was 200 µM (≈ 97.5 µg/mL); in the assay with Pseudomonas aeruginosa, above 200 µM. For the same molecule, in assay [1] (setting [8]), half-maximal inhibition (IC50) required 390 nM.
